Patent US5212185A, “Piperidinyl-terminated alkylamino ethynyl alanine amino diol compounds for treatment of hypertension” (G. D. Searle & Co., priority 1992, dated 1993)
Square brackets hold non-standard residues; d marks the D form. Peptide text beside a SMILES is read from it. * marks the point of attachment. Sta = CC(C)C[C@H](N)[C@@H](O)CC(=O)O; Isovaleryl = CC(C)CC(=O)*

Experiments:
human renin = biological target: T1, human renin (Homo sapiens, UniProt P00797); assay: Human Renin Inhibition in vitro (angiotensin I generation by radioimmunoassay); format: biochemical; details: pH 7.4, 37° C., two hours, human plasma
T1 construct: purchased National Institute for Biological Standards, London
T1 sequence (P00797 67-406): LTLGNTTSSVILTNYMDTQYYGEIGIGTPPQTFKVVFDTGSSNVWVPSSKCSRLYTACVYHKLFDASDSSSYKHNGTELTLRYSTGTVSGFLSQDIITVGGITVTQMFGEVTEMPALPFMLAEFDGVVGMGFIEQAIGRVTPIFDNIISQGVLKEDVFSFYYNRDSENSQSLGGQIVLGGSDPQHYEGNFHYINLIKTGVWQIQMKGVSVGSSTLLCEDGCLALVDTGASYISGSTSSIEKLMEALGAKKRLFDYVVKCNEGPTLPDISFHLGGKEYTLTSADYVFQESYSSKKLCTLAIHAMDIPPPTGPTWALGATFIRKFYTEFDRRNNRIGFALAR
Procedure: Compounds of Formula I were evaluated as inhibitors of human renin in an in vitro assay, as follows: This human renin inhibition test has been previously described in detail [Papaioannou et al., Clinical and Experimental Hypertension, A7(9), 1243-1257 (1985)]. Human renin was obtained from the National Institute for Biological Standards, London. An incubation mixture was prepared containing the following components: in a total volume of 0.25 mL: 100 mM Tris-acetate buffer at pH 7.4, 25×10^-6 Goldblatt units of renin, 0.05 mL of plasma from human volunteers taking oral contraceptives, 6.0 mM Na-EDTA, 2.4 mM phenylmethyl sulfonyl fluoride, 1.5 mM 8-hydroxyquinoline, 0.4 mg/mL bovine serum albumin (BSA), and 0.024 mg/mL neomycin sulfate. This mixture was incubated for two hours at 37° C. in the presence or absence of renin inhibitors. The produced angiotensin I was determined by radioimmunoassay (New England Nuclear kit). Test compounds to be assayed were dissolved in DMSO and diluted with 100mM Tris-acetate buffer at pH 7.4 containing 0.5% BSA to the appropriate concentration. The final concentration of organic solvent in the reaction mixture was less than 1%. Control incubations at 37° C. were used to correct for effects of organic solvent on renin activity.

acid proteases = details: cited from earlier work
cathepsin D = details: cited from earlier work
pepsin = details: cited from earlier work
renin = details: cited from earlier work
hog renin = details: after the injection of hog renin into nephrectomized rats; cited from earlier work

Question: For `C#CC[C@H](NC(=O)[C@@H](CC(=O)N(C)CCN1CCCCC1)Cc1ccccc1)C(=O)N[C@@H](CC1CCCCC1)[C@@H](O)[C@@H](O)CC(C)C` [Example 1], which IC50 (human renin) is on record?
Answer: 830 pM

Question: With `C#CC[C@H](NC(=O)[C@@H](CC(=O)N(C)CCN1Cc2ccccc2C1)Cc1ccccc1)C(=O)N[C@@H](CC1CCCCC1)[C@@H](O)[C@@H](O)CC(C)C` [Example 2] as the compound, how does the IC50 (human renin) read?
Answer: 560 pM

Question: Which IC50 (human renin) does the source give for `C#CC[C@H](NC(=O)[C@@H](CC(=O)N(C)CCN1CC2CCC(CC2)C1)Cc1ccccc1)C(=O)N[C@@H](CC1CCCCC1)[C@@H](O)[C@@H](O)CC(C)C` [Example 3] here?
Answer: 1200 pM

Question: Which “inhibiting acid proteases in addition to renin” value (acid proteases) does the source give for `CC(C)CC(=O)N[C@H](C(=O)N[C@H](C(=O)N[C@@H](CC(C)C)[C@@H](O)CC(=O)N[C@@H](C)C(=O)N[C@@H](CC(C)C)[C@@H](O)CC(=O)O)C(C)C)C(C)C` [pepstatin] (Isovaleryl-VV[Sta]A[Sta]-OH) here?
Answer: inhibiting acid proteases in addition to renin

Question: And the “inhibition of cathepsin D” value (cathepsin D)?
Answer: inhibitor of aspartyl proteases such as pepsin, cathepsin D

Question: And the inhibition of pepsin (pepsin)?
Answer: inhibitor of aspartyl proteases such as pepsin

Question: What about the inhibition of renin (renin) of the same compound?
Answer: inhibitor of aspartyl proteases such as pepsin, cathepsin D and renin

Question: And the “reduce blood pressure in vivo” value (hog renin)?
Answer: found to reduce blood pressure in vivo
